{"source": "paper PMC7567103", "about": "(Nature Communications, 2020)", "type_in_all_cases": "cell-based", "settings_in_all_cases": "mean ± SEM, n ≥ 3", "key": {"GHRHR E123A": {"target": "T1, GHRHR E123A (Homo sapiens, UniProt Q02643, E123A)", "T1 construct": "GHRHR(23-423)-; HA signal peptide (replaces native signal M1-G22) (N); expressed in transfected cells; host or cells: HEK 293T, pcDNA3.1, transient", "T1 sequence (Q02643 23-423 E123A)": "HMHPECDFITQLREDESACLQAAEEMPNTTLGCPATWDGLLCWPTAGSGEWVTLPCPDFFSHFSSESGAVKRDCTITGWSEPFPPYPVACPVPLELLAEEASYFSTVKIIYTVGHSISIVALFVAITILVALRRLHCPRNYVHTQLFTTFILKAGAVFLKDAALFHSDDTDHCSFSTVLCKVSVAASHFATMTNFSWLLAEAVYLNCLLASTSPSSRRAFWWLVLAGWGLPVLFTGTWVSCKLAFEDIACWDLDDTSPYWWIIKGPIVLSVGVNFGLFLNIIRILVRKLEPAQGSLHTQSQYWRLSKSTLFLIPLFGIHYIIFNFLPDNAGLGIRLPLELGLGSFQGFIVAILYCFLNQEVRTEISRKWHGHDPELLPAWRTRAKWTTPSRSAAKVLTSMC", "assay": "cAMP accumulation, E123A", "text": "(§1) Fig. 2 Molecular recognition of GHRH by GHRHR and comparison of that with LA-PTH–PTH1R and GLP-1–GLP-1R. a Detailed interaction between GHRH and the TMD pocket of GHRHR with hydrogen bonds shown as dotted lines. b, c Pairwise comparison of GHRH bound to GHRHR with GLP-1 and LA-PTH in complex with their corresponding receptors, showing the relative positions of peptide ligands. Lime green, GHRHR; blue, GHRH; red, PTH1R and LA-PTH; purple, GLP-1R and GLP-1. d–f The effects of mutation in the ligand-binding pocket on cAMP accumulation. cAMP levels were measured in wild-type (WT) receptor and alanine mutants in ECL1, 2, and 3 (d), TM1, 2, and 3 (e), and TM5, 6, and 7 (f). cAMP signals were normalized to the maximum response of WT and concentration–response curves were analyzed using a three-parameter logistic equation. Data shown are means ± S.E.M. of at least three independent experiments (n = 3–5), conducted in triplicate. Source data are provided as a Source data file.\n(§2) GHRH-stimulated cAMP accumulation was measured by a LANCE Ultra cAMP kit (PerkinElmer). […] After 1 h RT incubation, TR-FRET signals (excitation: 320 nm, emission: 615 and 665 nm) were measured by an EnVision (PerkinElmer)."}, "GHRHR D274A": {"target": "T2, GHRHR D274A (Homo sapiens, UniProt Q02643, D274A)", "T2 construct": "GHRHR(23-423)-; HA signal peptide (replaces native signal M1-G22) (N); expressed in transfected cells; host or cells: HEK 293T, pcDNA3.1, transient", "T2 sequence (Q02643 23-423 D274A)": "as the sequence (Q02643 23-423 E123A) above, with A101E, D252A counted along it", "assay": "cAMP accumulation, D274A", "text": "as §1, §2"}, "GHRHR L358A": {"target": "T3, GHRHR L358A (Homo sapiens, UniProt Q02643, L358A)", "T3 construct": "GHRHR(23-423)-; HA signal peptide (replaces native signal M1-G22) (N); expressed in transfected cells; host or cells: HEK 293 T", "T3 sequence (Q02643 23-423 L358A)": "as the sequence (Q02643 23-423 E123A) above, with A101E, L336A counted along it", "assay": "cAMP accumulation, L358A", "text": "as §1, §2"}}}
{"compound": "CC[C@H](C)[C@H](NC(=O)[C@H](C)NC(=O)[C@H](CC(=O)O)NC(=O)[C@H](C)NC(=O)[C@@H](N)Cc1ccc(O)cc1)C(=O)N[C@@H](Cc1ccccc1)C(=O)N[C@H](C(=O)N[C@@H](CC(N)=O)C(=O)N[C@@H](CO)C(=O)N[C@@H](Cc1ccc(O)cc1)C(=O)N[C@@H](CCCNC(=N)N)C(=O)N[C@@H](CCCCN)C(=O)N[C@H](C(=O)N[C@@H](CC(C)C)C(=O)NCC(=O)N[C@@H](CCC(N)=O)C(=O)N[C@@H](CC(C)C)C(=O)N[C@@H](CO)C(=O)N[C@@H](C)C(=O)N[C@@H](CCCNC(=N)N)C(=O)N[C@@H](CCCCN)C(=O)N[C@@H](CC(C)C)C(=O)N[C@@H](CC(C)C)C(=O)N[C@@H](CCC(N)=O)C(=O)N[C@@H](CC(=O)O)C(=O)N[C@H](C(=O)N[C@@H](CCSC)C(=O)N[C@@H](CO)C(=O)N[C@@H](CCCNC(=N)N)C(=O)N[C@@H](CCC(N)=O)C(=O)N[C@@H](CCC(N)=O)C(=O)NCC(=O)N[C@@H](CCC(=O)O)C(=O)N[C@@H](CO)C(=O)N[C@@H](CC(N)=O)C(=O)N[C@@H](CCC(N)=O)C(=O)N[C@@H](CCC(=O)O)C(=O)N[C@@H](CCCNC(=N)N)C(=O)NCC(=O)N[C@@H](C)C(=O)N[C@@H](CCCNC(=N)N)C(=O)N[C@@H](C)C(=O)N[C@@H](CCCNC(=N)N)C(=O)N[C@@H](CC(C)C)C(N)=O)[C@@H](C)CC)C(C)C)[C@@H](C)O", "note": "[GHRH, Growth hormone-releasing hormone]", "values": [{"measurement": "EC50", "setting": "GHRHR E123A", "value": 0.0724, "unit": "nM"}, {"measurement": "Emax", "setting": "GHRHR E123A", "value": "100.33±1.34", "unit": "% WT"}, {"measurement": "EC50", "setting": "GHRHR D274A", "value": 0.468, "unit": "nM"}, {"measurement": "Emax", "setting": "GHRHR D274A", "value": "99.78±2.32", "unit": "% WT"}, {"measurement": "EC50", "setting": "GHRHR L358A", "value": 1.05, "unit": "nM"}, {"measurement": "Emax", "setting": "GHRHR L358A", "value": "100.3±1.21", "unit": "% WT"}]}
